{"source": "patent US10591445B2", "about": "“Methods for analysis and resolution of preparations of dianhydrogalactitol and derivatives or analogs thereof” (Del Mar Pharmaceuticals (BC) Ltd., priority 2015, dated 2020)", "key": {"[1]": {"experiment": "Solution stability of DAG sample solution (HPLC-ELSD)", "assay_type": "physicochemical", "conditions": "8 mg/mL in acetonitrile/water (85:15)", "method": "The test sample solutions (nominal 8 mg/mL) are prepared as follows. The sample preparation for DAG drug substance or API can be as follows. Accurately weigh, in duplicate, about 80 mg of DAG API sample into clean 10 mL volumetric flasks. Dissolve DAG API sample in approximately 5 mL of diluent, diluted to volume with diluent, and mix. The sample preparation for DAG drug product (lyophilized powder, 40 mg/vial) can be as follows: Clean and remove the closure of the vial. Reconstitute the lyophilized vial with 5.0 mL diluent to yield an 8 mg/mL solution. Prepare samples in duplicate (using 2 vials). The sample solutions can be stored up to 48 hrs at 2-8° C. and 52 hrs at ambient laboratory conditions.\nWith respect to solution stability, the recovery of the aged solutions should be within 85%-115% of the initial assay. […]\nThe experimental approach for determining solution stability was as follows: For a standard solution, a dulcitol standard solution was prepared at 1.0% of DAG nominal conc. in one replicate and placed the solution under ambient laboratory conditions and refrigerated conditions (2-8° C.), respectively, using 1% Linearity standard solutions). […] For time points of less than 24 hours, solution stability is evaluated against fresh standards. The recovery of the aged solutions is evaluated. […] For time points of less than 24 hours, solution stability is evaluated against fresh standards."}, "[2]": {"experiment": "Solution stability of dulcitol standard solution (HPLC-ELSD)", "assay_type": "physicochemical", "conditions": "for Assay / Concentration: standard solution", "method": "The standard solutions can be stored up to 48 hrs at 2-8° C. and can be stored up to 52 hrs at ambient laboratory condition. The standard solutions can be used to generate a standard curve as described further below.\nWith respect to solution stability, the recovery of the aged solutions should be within 85%-115% of the initial assay. The absolute difference should be no more than 0.2% for an impurity at ≤1.0%. For an impurity >1.0%, the result of the aged solution should be within 80%-120% of the original. No new impurities at ≥1.0% should be observed.\nThe experimental approach for determining solution stability was as follows: For a standard solution, a dulcitol standard solution was prepared at 1.0% of DAG nominal conc. in one replicate and placed the solution under ambient laboratory conditions and refrigerated conditions (2-8° C.), respectively, using 1% Linearity standard solutions). The solution was reanalyzed at different time intervals, such as 2 hours, 4 hours, 8 hours, 24 hours and 48 hours. For time points of less than 24 hours, solution stability is evaluated against fresh standards. The recovery of the aged solutions is evaluated. For sample solutions, a sample solution at a specified DAG nominal concentration was prepared in one replicate and placed under laboratory conditions at ambient temperature or under refrigerated conditions (2-8° C.). The solution was reanalyzed at different time intervals, such as 2 hours, 4 hours, 8 hours, 24 hours and 48 hours. For time points of less than 24 hours, solution stability is evaluated against fresh standards."}, "[3]": {"conditions": "ambient laboratory conditions, 0 h"}, "[4]": {"conditions": "ambient laboratory conditions, 2 h"}, "[5]": {"conditions": "ambient laboratory conditions, 4 h"}, "[6]": {"conditions": "ambient laboratory conditions, 8 h"}, "[7]": {"conditions": "ambient laboratory conditions, 25 h"}, "[8]": {"conditions": "ambient laboratory conditions, 48 h"}}}
{"smiles": "OC(C1CO1)C(O)C1CO1", "note": "(stereo not shown) [DAG, 1,2:5,6 dianhydrogalactitol]", "values": [{"measurement": "Time the sample solutions can be stored", "setting": "[1]; 2-8° C.", "value": "up to 48 hrs"}, {"measurement": "Time the sample solutions can be stored", "setting": "[1]; ambient laboratory conditions", "value": "≤ 52", "unit": "h"}]}
{"smiles": "OC[C@@H](O)[C@H](O)[C@H](O)[C@@H](O)CO", "note": "[Dulcitol, dulcitol]", "values": [{"measurement": "Time the standard solutions can be stored", "setting": "[2]; 2-8° C.", "value": "up to 48 hrs"}, {"measurement": "Time the standard solutions can be stored", "setting": "[2]; ambient laboratory condition", "value": "up to 52 hrs"}, {"measurement": "Assay", "setting": "[2]; 2-8° C., 0 h", "value": 109.233, "unit": "%"}, {"measurement": "Concentration", "setting": "[2]; 2-8° C., 0 h", "value": 89.5, "unit": "µg/mL"}, {"measurement": "Assay", "setting": "[2]; 2-8° C., 2 h", "value": 109.076, "unit": "%"}, {"measurement": "Concentration", "setting": "[2]; 2-8° C., 2 h", "value": 89.4, "unit": "µg/mL"}, {"measurement": "Assay", "setting": "[2]; 2-8° C., 4 h", "value": 109.164, "unit": "%"}, {"measurement": "Concentration", "setting": "[2]; 2-8° C., 4 h", "value": 89.5, "unit": "µg/mL"}, {"measurement": "Assay", "setting": "[2]; 2-8° C., 8 h", "value": 108.302, "unit": "%"}, {"measurement": "Concentration", "setting": "[2]; 2-8° C., 8 h", "value": 88.8, "unit": "µg/mL"}, {"measurement": "Assay", "setting": "[2]; 2-8° C., 25 h", "value": 109.056, "unit": "%"}, {"measurement": "Concentration", "setting": "[2]; 2-8° C., 25 h", "value": 89.4, "unit": "µg/mL"}, {"measurement": "Assay", "setting": "[2]; 2-8° C., 48 h", "value": 108.947, "unit": "%"}, {"measurement": "Concentration", "setting": "[2]; 2-8° C., 48 h", "value": 89.3, "unit": "µg/mL"}, {"measurement": "Assay", "setting": "[2]; [3]", "value": 109.944, "unit": "%"}, {"measurement": "Concentration", "setting": "[2]; [3]", "value": 89.8, "unit": "µg/mL"}, {"measurement": "Assay", "setting": "[2]; [4]", "value": 109.778, "unit": "%"}, {"measurement": "Concentration", "setting": "[2]; [4]", "value": 89.7, "unit": "µg/mL"}, {"measurement": "Assay", "setting": "[2]; [5]", "value": 109.059, "unit": "%"}, {"measurement": "Concentration", "setting": "[2]; [5]", "value": 89.1, "unit": "µg/mL"}, {"measurement": "Assay", "setting": "[2]; [6]", "value": 108.590, "unit": "%"}, {"measurement": "Concentration", "setting": "[2]; [6]", "value": 88.7, "unit": "µg/mL"}, {"measurement": "Assay", "setting": "[2]; [7]", "value": 110.553, "unit": "%"}, {"measurement": "Concentration", "setting": "[2]; [7]", "value": 90.3, "unit": "µg/mL"}, {"measurement": "Assay", "setting": "[2]; [8]", "value": 108.986, "unit": "%"}, {"measurement": "Concentration", "setting": "[2]; [8]", "value": 89.1, "unit": "µg/mL"}]}
